According to patent US5965743A, “N-substituted imidazol derivative” (Nippon Soda Co., Ltd., priority 1994, dated 1999):
pIC50: −log10 of the molar value. Where two headings read alike, the source gives them in different places.

Tests used:
[1] = tested on: biosynthesis of cholesterol; test: Inhibitory effect on biosynthesis of cholesterol in cell-free biosystem; format: biochemical, rat (SD-strain); settings: cell-free rat liver enzyme system, 90 min, 37° C., pH 7.4; read-out: 50% Inhibitory Concentration (IC50), cholesterol biosynthesis
Method: Inhibitory Effect on Biosynthesis of Cholesterol in Cell-free Biosystem
(1) Preparation of Enzyme Reaction System
(§1) The preparation of the enzymatic system for the biosynthesis of cholesterol in rats was carried out according to the method described in Biochimica et Biophysica Acta, Vol.486, pp 70-81, 1977.
(§2) More particularly, SD-strain female rats weighing from […] were fed for 7 to 10 days with a diet containing 2% cholestyramine to enhance their biosynthetic activity of cholesterol. After killed the rats by means of depletion of blood in midnight, the livers thereof were removed and homogenized with a double volume of 0.1 M potassium phosphate buffer solution (pH 7.4) containing 15 mM nicotine amide and 2 mM magnesium chloride by using a loose fitting-type teflon homogenizer. The supernatant obtained by centrifuging the homogenate at 12,000×g for 30 min. was further centrifuged at 105,000×g for 90 min., thereby separating it to the microsome fraction and the supernatant fraction. The supernatant obtained were kept as the fraction resulting in the precipitation in 40-80% ammonium sulfate (hereinafter referred to as "soluble fraction"). Each of the soluble fraction and the microsome fraction were independently adjusted with 0.1 M potassium phosphate buffer solution (pH 7.4) to the volumes of 1 ml/g of liver and 1 ml/3 g of liver, respectively, and were kept and used in the subsequent tests as an enzyme solution for the mixing ratio of 16:1.
(2) Method for Measuring Cholesterol Biosynthesis Activity
(§3) Cholesterol biosynthesis activity was measured according to the method described in Biochimica Biophysica Acta, Vol.486, pp 70-81, 1977. 2 μl dimethylsulfoxide solution of the test compound were added to a solution composed of 50 μl of the enzyme solution prepared in (1) described above, 0.1 M potassium phosphate buffer solution (pH 7.4), 1 mM ATP, 5 mM glucose-1-phosphate, 6 mM glutathione, 6 mM magnesium chloride, 0.04 mM coenzyme A, 0.25 mM NAD, 0.25 mM NADP and 1 mM 2-^14 C-sodium acetate (111 MBq./mmol), and the resultant solution was adjusted to the whole volume of 0.2 ml and then allowed to a reaction for 90 min. at 37° C. while shaking. The reaction was then stopped by adding 1 ml of 15% ethanol solution of potassium hydroxide, and the solution was then heated for 1 hour at 75° C. After extracted unsaponificated products with hexane from the solution, the solution was then condensed and dried to the hard state and subsequently dissolved in small volume of a mixture of chloroform and methanol (mixing ratio; 1:2). The resultant chloroform-methanol solution was spotted on a pre-coated silica gel TLC plate, then developed with a developer composed of benzene and ethyl acetate (mixing ratio; 9:1). The cholesterol spot was then taken out from the plate, and the radient activity of the spot was measured by using a liquid scintillation counter. Based on the radio-activity measured, mthe 50% inhibitory concentration (IC50) of the compounds of the present invention were determined.

[2] = target: T1, squalene-2,3-oxide cyclase (Rattus norvegicus, UniProt P48450); test: Sterol amount synthesized in cell-free cholesterol biosynthesis system (squalene-2,3-epoxide accumulation); format: biochemical, rat (SD-strain); settings: average of 6 results
T1 sequence (P48450 2-733): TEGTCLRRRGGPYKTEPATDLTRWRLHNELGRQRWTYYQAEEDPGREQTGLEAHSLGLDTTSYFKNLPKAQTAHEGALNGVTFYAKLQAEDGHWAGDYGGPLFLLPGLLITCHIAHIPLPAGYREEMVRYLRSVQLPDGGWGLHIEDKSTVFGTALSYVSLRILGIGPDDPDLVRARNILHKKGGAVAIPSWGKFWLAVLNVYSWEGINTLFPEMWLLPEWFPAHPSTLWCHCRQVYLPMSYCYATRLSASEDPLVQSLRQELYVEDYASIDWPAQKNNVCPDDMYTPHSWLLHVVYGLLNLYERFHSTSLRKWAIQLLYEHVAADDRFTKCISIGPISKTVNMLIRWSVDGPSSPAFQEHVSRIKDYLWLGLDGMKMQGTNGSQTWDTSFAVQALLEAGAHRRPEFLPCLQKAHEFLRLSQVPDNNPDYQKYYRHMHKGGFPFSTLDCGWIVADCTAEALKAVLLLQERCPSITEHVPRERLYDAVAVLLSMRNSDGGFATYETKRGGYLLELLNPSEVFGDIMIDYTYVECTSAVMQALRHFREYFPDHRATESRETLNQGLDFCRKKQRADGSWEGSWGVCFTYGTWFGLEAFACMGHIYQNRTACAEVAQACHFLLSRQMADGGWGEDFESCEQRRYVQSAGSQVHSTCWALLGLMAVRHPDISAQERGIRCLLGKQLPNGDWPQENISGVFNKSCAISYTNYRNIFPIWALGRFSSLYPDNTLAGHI
Method: as §1, §2, §3
On the other hand, after determining the position of ^14 C-squalene-2,3-epoxide on the TLC, which was produced due to the action of AMO 1618 (Calbiochem, USA), a squalene-2,3-oxidecyclase inhibitor, the spot containing squalene-2,3-epoxide […] was taken out and the radio-activity thereof was then determined by using a liquid scintillation counter.

[3] = tested on: Triton WR-1339-Induced Hyperlipemia Mice; test: Effect on serum lipid in Triton WR-1339-induced hyperlipemia mice; format: in vivo, mouse (Crj:ICR-strain); settings: Mus musculus, po (3 x 33.3 mg/kg), average of 10 animals, 24 hours
Method: For this test, Crj:ICR-strain male mice aged 7-9 weeks were provided. […] After 24 hours, blood sampling was performed for each mouse from the abdominal aorta under anesthesia with ether, and the collected blood were placed into plastic test tubes being placed with a blood separating agent beforehand, then after 30 min. or 1 hour, the blood sampled was centrifuged at 10,000 rpm to obtain the serum. Total cholesterol value, HDL cholesterol value and total triglyceride value in the serum were respectively measured by using the measuring kits and automatic biochemical analyser.

[4] = 1 μM, control 2125 (Test 1, 1-17), 953 (Test 2, 2-47)
[5] = 1 μM, control 15448 (Test 1, 1-17), 9453 (Test 2, 2-47)
[6] = 1 μM, control 85102 (Test 1, 1-17), 53622 (Test 2, 2-47)
[7] = 3 μM, control 2125 (Test 1, 1-17), 953 (Test 2, 2-47)
[8] = 3 μM, control 15448 (Test 1, 1-17), 9453 (Test 2, 2-47)
[9] = 3 μM, control 85102 (Test 1, 1-17), 53622 (Test 2, 2-47)
[10] = 10 μM, control 2125 (Test 1, 1-17), 953 (Test 2, 2-47)
[11] = 10 μM, control 15448 (Test 1, 1-17), 9453 (Test 2, 2-47)
[12] = 10 μM, control 85102 (Test 1, 1-17), 53622 (Test 2, 2-47)
[13] = 30 μM, control 2125 (Test 1, 1-17), 953 (Test 2, 2-47)
[14] = 30 μM, control 15448 (Test 1, 1-17), 9453 (Test 2, 2-47)
[15] = 30 μM, control 85102 (Test 1, 1-17), 53622 (Test 2, 2-47)
[16] = read-out: % Change of Serum Lipid to Control Group: HDL Cholesterole
[17] = read-out: % Change of Serum Lipid to Control Group: Total Cholesterole
[18] = read-out: % Change of Serum Lipid to Control Group: Total glyceride

SMILES	pIC50 [1]	change in vivo at 100 mg/kg [3, 16] [%]	change in vivo at 100 mg/kg [3, 17] [%]	change in vivo at 100 mg/kg [3, 18] [%]	other results
Cc1cc(OC(=O)N2CCCCC2)c(C(C)C)cc1[N+](C)(C)C [AMO 1618, reference compound]	3.85	–	–	–	–
c1ccc(CCCNc2ccc(-n3ccnc3)cc2)cc1 [Compound 1-17]	5.82	78	-29	-46	Sterol Amount Synthesized: Squalene-2,3-epoxide [2, 4]: 3238 dpm/90min/Assay; Sterol Amount Synthesized: Cholesterol [2, 5]: 15297 dpm/90min/Assay; Sterol Amount Synthesized: Total Amount Synthesized [2, 6]: 72069 dpm/90min/Assay; Sterol Amount Synthesized: Squalene-2,3-epoxide [2, 7]: 2102 dpm/90min/Assay; Sterol Amount Synthesized: Cholesterol [2, 8]: 8938 dpm/90min/Assay; Sterol Amount Synthesized: Total Amount Synthesized [2, 9]: 82446 dpm/90min/Assay; Sterol Amount Synthesized: Squalene-2,3-epoxide [2, 10]: 7382 dpm/90min/Assay; Sterol Amount Synthesized: Cholesterol [2, 11]: 6364 dpm/90min/Assay; Sterol Amount Synthesized: Total Amount Synthesized [2, 12]: 79733 dpm/90min/Assay; Sterol Amount Synthesized: Squalene-2,3-epoxide [2, 13]: 10914 dpm/90min/Assay; Sterol Amount Synthesized: Cholesterol [2, 14]: 3558 dpm/90min/Assay; Sterol Amount Synthesized: Total Amount Synthesized [2, 15]: 95990 dpm/90min/Assay; Sterol Amount Synthesized: Squalene-2,3-epoxide ([2]; 100 μM, control 2125 (Test 1)): 12736 dpm/90min/Assay; Sterol Amount Synthesized: Cholesterol ([2]; 100 μM, control 15448 (Test 1)): 1830 dpm/90min/Assay; Sterol Amount Synthesized: Total Amount Synthesized ([2]; 100 μM, control 85102 (Test 1)): 77489 dpm/90min/Assay
c1ccc(CCCCNc2ccc(-n3ccnc3)cc2)cc1 [Compound 1-20]	6.15	–	–	–	–
c1ccc(CCCCCCNc2ccc(-n3ccnc3)cc2)cc1 [Compound 1-24]	5.59	–	–	–	–
CN(CCCc1ccccc1)c1ccc(-n2ccnc2)cc1 [Compound 1-27]	5.74	65	-14	-22	–
c1ccc(OCCCNc2ccc(-n3ccnc3)cc2)cc1 [Compound 1-33]	5.21	–	–	–	–
c1ccc(OCCCCNc2ccc(-n3ccnc3)cc2)cc1 [Compound 1-35]	5.66	–	–	–	–
c1ccc(CCCOc2ccc(-n3ccnc3)cc2)cc1 [Compound 1-47]	5.15	46	-16	-23	–
CC(CCOc1ccc(-n2ccnc2)cc1)c1ccccc1 (stereo not drawn) [Compound 1-48]	5.85	–	–	–	–
c1ccc(CCCCOc2ccc(-n3ccnc3)cc2)cc1 [Compound 1-49, 1-[4-(4-phenylbutoxy)phenyl]imidazole]	6.17	–	–	–	–
c1ccc(CCCCCCOc2ccc(-n3ccnc3)cc2)cc1 [Compound 1-53]	5.77	–	–	–	–
c1ccc(OCCCOc2ccc(-n3ccnc3)cc2)cc1 [Compound 1-60]	5.32	52	-22	-37	–
c1ccc(OCCCCOc2ccc(-n3ccnc3)cc2)cc1 [Compound 1-61]	5.40	–	–	–	–
CCCCCCCCCCNc1ccc(-n2ccnc2)cc1 [Compound 1-115]	5.00	22	-17	-25	–
CCCCCCCCCCOc1ccc(-n2ccnc2)cc1 [Compound 1-119]	5.05	–	–	–	–
c1ccc(CCCOc2ccc(Cn3ccnc3)cc2)cc1 [Compound 2-47, 1-[4-(3-phenylpropyloxy)benzyl]imidazole]	5.85	–	–	–	Sterol Amount Synthesized: Squalene-2,3-epoxide [2, 4]: 221 dpm/90min/Assay; Sterol Amount Synthesized: Cholesterol [2, 5]: 5289 dpm/90min/Assay; Sterol Amount Synthesized: Total Amount Synthesized [2, 6]: 53803 dpm/90min/Assay; Sterol Amount Synthesized: Squalene-2,3-epoxide [2, 7]: 1280 dpm/90min/Assay; Sterol Amount Synthesized: Cholesterol [2, 8]: 6333 dpm/90min/Assay; Sterol Amount Synthesized: Total Amount Synthesized [2, 9]: 56335 dpm/90min/Assay; Sterol Amount Synthesized: Squalene-2,3-epoxide [2, 10]: 1836 dpm/90min/Assay; Sterol Amount Synthesized: Cholesterol [2, 11]: 4210 dpm/90min/Assay; Sterol Amount Synthesized: Total Amount Synthesized [2, 12]: 72823 dpm/90min/Assay; Sterol Amount Synthesized: Squalene-2,3-epoxide [2, 13]: 7126 dpm/90min/Assay; Sterol Amount Synthesized: Cholesterol [2, 14]: 3787 dpm/90min/Assay; Sterol Amount Synthesized: Total Amount Synthesized [2, 15]: 63661 dpm/90min/Assay
c1ccc(CCCCOc2ccc(Cn3ccnc3)cc2)cc1 [Compound 2-49, 1-[4-(4-phenylbutyloxy)benzyl]imidazole]	5.92	20	-16	-10	–
c1ccc(OCCOc2ccc(Cn3ccnc3)cc2)cc1 [Compound 2-59, 1-[4-(2-phenoxyethyloxy)benzyl]imidazole]	4.68	–	–	–	–
c1ccc(OCCCOc2ccc(Cn3ccnc3)cc2)cc1 [Compound 2-60]	5.00	–	–	–	–
O=S(=O)(CCCOc1ccc(Cn2ccnc2)cc1)c1ccccc1 [Compound 2-68, 1-[4-(3-benzenesulfonylpropyloxy)benzyl]imidazole]	> 6.00	–	–	–	–
Cc1ccc(OCCCOc2ccc(Cn3ccnc3)cc2)cc1 [Compound 2-95, 1-{4-[3-(4-tolyloxy)propyloxy]benzyl} imidazole]	5.62	–	–	–	–
CC[C@H](C)C(=O)O[C@H]1C[C@H](O)C=C2C=C[C@H](C)[C@H](CC[C@@H](O)C[C@@H](O)CC(=O)O)[C@H]21 [Pravastatin, reference compound]	–	-8	-16	-28	–
